Reference: US8242174B2 (priority 2007, dated 2012)

These molecules were tested against Lethal factor protease (Bacillus anthracis, UniProt P15917) (assay: biochemical).
Sequence of Lethal factor protease (P15917 34-809 limits assumed): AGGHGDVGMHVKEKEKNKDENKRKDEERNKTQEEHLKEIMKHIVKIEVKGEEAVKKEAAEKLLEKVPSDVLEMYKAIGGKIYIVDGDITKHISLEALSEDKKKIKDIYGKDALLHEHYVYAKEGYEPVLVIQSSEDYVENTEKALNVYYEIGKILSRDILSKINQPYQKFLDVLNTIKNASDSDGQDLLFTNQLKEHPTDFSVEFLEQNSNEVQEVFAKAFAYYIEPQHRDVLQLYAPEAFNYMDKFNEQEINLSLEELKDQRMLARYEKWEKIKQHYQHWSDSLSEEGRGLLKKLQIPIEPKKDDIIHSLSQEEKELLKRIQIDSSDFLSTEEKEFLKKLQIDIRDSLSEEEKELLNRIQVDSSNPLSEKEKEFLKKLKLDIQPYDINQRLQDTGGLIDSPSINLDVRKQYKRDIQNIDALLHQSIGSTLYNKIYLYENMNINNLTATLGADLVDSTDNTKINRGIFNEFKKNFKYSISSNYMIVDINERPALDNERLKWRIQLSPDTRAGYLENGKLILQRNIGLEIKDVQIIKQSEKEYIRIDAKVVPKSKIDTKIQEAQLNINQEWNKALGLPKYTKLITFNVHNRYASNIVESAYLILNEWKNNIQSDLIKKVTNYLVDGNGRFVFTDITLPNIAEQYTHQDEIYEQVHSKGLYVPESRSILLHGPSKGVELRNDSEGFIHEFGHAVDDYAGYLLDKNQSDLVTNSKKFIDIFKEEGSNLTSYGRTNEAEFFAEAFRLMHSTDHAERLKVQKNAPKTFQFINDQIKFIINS

Structure (SMILES)	Ki [nM]
CNc1cccc(S(=O)(=O)NCCCC[C@@H](Nc2cc(C)c(F)c(C)c2)C(=O)NO)c1 [Compound 167667, (R)-2-(4-Fluoro-3,5-dimethyl-phenylamino)-6-(3-methylamino-benzenesulfonylamino)-hexanoic acid hydroxyamide]	590
Cc1cc(N[C@H](CCCCNCc2ccccc2)C(=O)NO)cc(C)c1F [Compound 167736, (R)-6-Benzylamino-2-(4-fluoro-3,5-dimethyl-phenylamino)-hexanoic acid hydroxyamide]	110
Cc1cc(N[C@@H](C(=O)NO)c2ccccc2)cc(C)c1F [Compound 167425, (R)-2-(4-Fluoro-3,5-dimethyl-phenylamino)-N-hydroxy-2-phenyl-acetamide]	480
CCCCC(Nc1cccc(C(C)C)c1)C(=O)NO (stereo not drawn) [Compound 167183, 2-(3-Isopropyl-phenylamino)-hexanoic acid hydroxyamide]	> 300000
Cc1cc(N[C@H](CCCCNCc2cccc([N+](=O)[O-])c2)C(=O)NO)cc(C)c1F [Compound 167737, (R)-2-(4-Fluoro-3,5-dimethyl-phenylamino)-6-(3-nitro-benzylamino)-hexanoic acid hydroxyamide]	70
CCCCC(Nc1cccc(F)c1)C(=O)NO (stereo not drawn) [Compound 167277, 2-(3-Fluoro-phenylamino)-hexanoic acid hydroxyamide]	134000
CCCCC(Nc1cccc(CC)c1)C(=O)NO (stereo not drawn) [Compound 167201, 2-(3-Ethyl-phenylamino)-hexanoic acid hydroxyamide]	89800
CCCCC(Nc1cc(Br)cc(Br)c1)C(=O)NO (stereo not drawn) [Compound 167843, 2-(3,5-Dibromo-phenylamino)-hexanoic acid hydroxyamide]	52300
Cc1cc(NC(CCC(F)(F)F)C(=O)NO)cc(C)c1F (stereo not drawn) [Compound 167482, 5,5,5-Trifluoro-2-(4-fluoro-3,5-dimethyl-phenylamino)-pentanoic acid hydroxyamide]	1100
Cc1cc(N[C@H](CCCCNCc2cccc(-c3ccccc3)c2)C(=O)NO)ccc1F [Compound 168165, (R)-6-[(Biphenyl-3-ylmethyl)-amino]-2-(4-fluoro-3-methyl-phenylamino)-hexanoic acid hydroxyamide]	120
Cc1cc(N[C@H](COC(C)(C)C)C(=O)NO)cc(C)c1F [Compound 167484, (R)-3-tert-Butoxy-2-(4-fluoro-3,5-dimethyl-phenylamino)-N-hydroxy-propionamide]	450
Cc1cc(NC(CCCC(F)(F)F)C(=O)NO)cc(C)c1F (stereo not drawn) [Compound 167483, 6,6,6-Trifluoro-2-(4-fluoro-3,5-dimethyl-phenylamino)-hexanoic acid hydroxyamide]	1300
